This assay relates to alternansucrase. Nature of the assay: Comparison of acceptor strengths with alternansucrase, relative amount of alternan formed. As to conditions: for Alternan (Rel. %): 45 μL 10% (w/v) sucrose, 45 μL 10% (w/v) acceptor, 10 μL alternansucrase, pH 5.4, room temperature, less alternan = stronger acceptor; for acceptor strength for alternansucrase, in words: text summary of Table I.

With `OC[C@H]1O[C@@H](O[C@H]2[C@H](O)[C@@H](CO)OC(O)[C@@H]2O)[C@H](O)[C@@H](O)[C@@H]1O` (some centres unmarked) [laminaribiose], the “Alternan (Rel. %)” value is given as 58 Rel. %.

With `OC[C@H]1O[C@H](O[C@@H]2COC(O)(CO)[C@@H](O)[C@@H]2O)[C@H](O)[C@@H](O)[C@@H]1O` (some centres unmarked) [leucrose], the “Alternan (Rel. %)” value is 81 Rel. %. In addition, where the note is “acceptor added at the same initial level as other disaccharides”, the “reduction in the amount of alternan formed” value turned out to be 19%.

On to `OC[C@@H](O)[C@@H](O[C@H]1O[C@H](CO)[C@@H](O)[C@H](O)[C@H]1O)[C@H](O)[C@@H](O)CO` [maltitol], for which the “Alternan (Rel. %)” value stood at 18 Rel. % and the “acceptor strength for alternansucrase, in words” value (shortened to “acceptor strength”) is on record as “excellent acceptor”.

As for `OC[C@H]1O[C@H](O[C@H]2[C@H](O)[C@@H](O)[C@H](O)O[C@@H]2CO)[C@H](O)[C@@H](O)[C@@H]1O` [maltose], the “Alternan (Rel. %)” value is 11 Rel. % and the “acceptor strength” value is “excellent acceptor”.

`OC[C@@H](O)[C@@H](O)[C@H](O)[C@H](O)CO` [mannitol]: the “Alternan (Rel. %)” value is recorded as 100 Rel. %.

Take `OC[C@H]1O[C@@](CO)(O[C@H]2O[C@H](CO)[C@@H](O)[C@H](O)[C@H]2O)[C@@H](O[C@H]2O[C@H](CO)[C@@H](O)[C@H](O)[C@H]2O)[C@@H]1O` [melezitose]: the “Alternan (Rel. %)” value came to 90 Rel. %.

`OC[C@H]1O[C@H](OCC2O[C@@H](O)[C@H](O)[C@@H](O)[C@@H]2O)[C@H](O)[C@@H](O)[C@H]1O` (some centres unmarked) [melibiose]: the “Alternan (Rel. %)” value is on record as 45 Rel. % and the “acceptor strength” value was “relatively good acceptors”.

Take `O[C@H]1[C@H](O)[C@@H](O)[C@H](O)[C@@H](O)[C@H]1O` [myo-inositol]: the “Alternan (Rel. %)” value stood at 99 Rel. %.

For `OC[C@H]1O[C@H](O[C@H]2[C@H](O)[C@@H](CO)OC(O)[C@@H]2O)[C@H](O)[C@@H](O)[C@@H]1O` (some centres unmarked) [nigerose], the “Alternan (Rel. %)” value was determined as 23 Rel. %.

Take `OC[C@H]1O[C@H](OC[C@H]2OC(O)(CO)[C@@H](O)[C@@H]2O)[C@H](O)[C@@H](O)[C@@H]1O` (some centres unmarked) [palatinose]: the “Alternan (Rel. %)” value came out at 69 Rel. %.

With `OC[C@H]1O[C@H](OC[C@H]2O[C@H](O[C@H]3[C@H](O)[C@@H](O)C(O)O[C@@H]3CO)[C@H](O)[C@@H](O)[C@@H]2O)[C@H](O)[C@@H](O)[C@@H]1O` (some centres unmarked) [panose], the “Alternan (Rel. %)” value turned out to be 25 Rel. %.

In the case of `OC[C@H]1O[C@H](OC[C@H]2O[C@@](CO)(O[C@H]3O[C@H](CO)[C@@H](O)[C@H](O)[C@H]3O)[C@@H](O)[C@@H]2O)[C@H](O)[C@@H](O)[C@H]1O` [planteose], the “Alternan (Rel. %)” value is 76 Rel. %.

For the compound `OC[C@H]1O[C@H](OC[C@H]2O[C@H](O[C@]3(CO)O[C@H](CO)[C@@H](O)[C@@H]3O)[C@H](O)[C@@H](O)[C@@H]2O)[C@H](O)[C@@H](O)[C@H]1O` [raffinose], the “Alternan (Rel. %)” value is 67 Rel. % and the “acceptor strength” value is on record as “relatively good acceptors”.

For the compound `OC[C@H]1O[C@@H](O[C@H]2C(O)O[C@H](CO)[C@@H](O)[C@@H]2O)[C@H](O)[C@@H](O)[C@@H]1O` (some centres unmarked) [sophorose], the “Alternan (Rel. %)” value was 80 Rel. %.

Take `OC[C@@H](O)[C@@H](O)[C@H](O)[C@@H](O)CO` [sorbitol]: the “Alternan (Rel. %)” value worked out at 82 Rel. %.

For the compound `OC[C@H]1O[C@H](OC[C@H]2O[C@H](OC[C@H]3O[C@H](O[C@]4(CO)O[C@H](CO)[C@@H](O)[C@@H]4O)[C@H](O)[C@@H](O)[C@@H]3O)[C@H](O)[C@@H](O)[C@H]2O)[C@H](O)[C@@H](O)[C@H]1O` [stachyose], the “Alternan (Rel. %)” value worked out at 89 Rel. %.

For `OC[C@H]1O[C@@](CO)(O[C@H]2O[C@H](CO[C@H]3O[C@H](CO)[C@@H](O)[C@H](O)[C@H]3O)[C@@H](O)[C@H](O)[C@H]2O)[C@@H](O)[C@@H]1O` [theanderose], the “Alternan (Rel. %)” value is 42 Rel. %.

In the case of `O=C(CO)[C@@H](O[C@H]1O[C@H](CO)[C@@H](O)[C@H](O)[C@H]1O)[C@H](O)[C@H](O)CO` [turanose], the “Alternan (Rel. %)” value was found to be 57 Rel. %.

In the case of `OC[C@@H](O)[C@H](O)[C@@H](O)CO` [xylitol], the “Alternan (Rel. %)” value came to 97 Rel. %.

Take `OC[C@H]1O[C@H](O[C@H]2O[C@H](CO)[C@@H](O)[C@H](O)[C@H]2O)[C@H](O)[C@@H](O)[C@@H]1O` [α,α-trehalose]: the “Alternan (Rel. %)” value is 102 Rel. % and the “acceptor strength” value is listed as “not an acceptor”.

For `CO[C@H]1O[C@H](CO)[C@H](O)[C@H](O)[C@H]1O` [α-methyl-D-galactoside, α-methyl-D-galactopyranoside], the “Alternan (Rel. %)” value is recorded as 73 Rel. %.

Regarding `CO[C@H]1O[C@H](CO)[C@@H](O)[C@H](O)[C@H]1O` [α-methyl-D-glucoside, α-methyl-D-glucopyranoside], the “Alternan (Rel. %)” value is given as 20 Rel. %.

On to `CO[C@H]1O[C@H](CO)[C@@H](O)[C@H](O)[C@@H]1O` [α-methyl-D-mannoside, α-methyl-D-mannopyranoside], for which the “Alternan (Rel. %)” value is on record as 70 Rel. %.

As for `CCCCCCCCCCCCO[C@@H]1O[C@H](CO)[C@@H](O[C@H]2O[C@H](CO)[C@@H](O)[C@H](O)[C@H]2O)[C@H](O)[C@H]1O` [β-dodecyl maltoside], the “Alternan (Rel. %)” value was found to be 83 Rel. %.

Regarding `CO[C@@H]1O[C@H](CO)[C@H](O)[C@H](O)[C@H]1O` [β-methyl-D-galactoside, β-methyl-D-galactopyranoside], the “Alternan (Rel. %)” value is listed as 94 Rel. %.

Take `CO[C@@H]1O[C@H](CO)[C@@H](O)[C@H](O)[C@H]1O` [β-methyl-D-glucoside]: the “Alternan (Rel. %)” value is reported as 60 Rel. %.

`CO[C@@H]1O[C@H](CO)[C@@H](O)[C@H](O)[C@@H]1O` [β-methyl-D-mannoside]: the “Alternan (Rel. %)” value was found to be 89 Rel. %.

With `COC1OCC(O)C(O)C1O` [β-methyl-D-xyloside], the “Alternan (Rel. %)” value was 96 Rel. %.

Consider `CCCCCCCCO[C@@H]1O[C@H](CO)[C@@H](O)[C@H](O)[C@H]1O` [β-octyl D-glucoside, β-octyl-D-glucopyranoside], for which the “Alternan (Rel. %)” value is given as 52 Rel. %.

For the compound gentiobiose, the “Alternan (Rel. %)” value stood at 25 Rel. % and the “acceptor strength” value is given as “surprisingly good acceptor”.

In the case of maltotriose, the “Alternan (Rel. %)” value came out at 65 Rel. %.

These data come from patent US7182954B1, “Prebiotic oligosaccharides via alternansucrase acceptor reactions” (priority 2003, dated 2007).
